Source: patent US8298781B2, “Compositions and methods for characterizing and regulating olfactory sensation” (Duke University, priority 2007, dated 2012)

Experiments:
human subjects [1] = experiment: Human olfactory psychophysics: intensity rating by OR7D4 genotype; format: in vivo; settings: for intensity rating, OR7D4 RT/WM vs RT/RT subjects: 7-point scale, two concentrations pooled, N=100 RT/WM, N=255 RT/RT; for intensity rating, RT/S84N subjects vs RT/RT controls: N=7 RT/S84N; for reduction in odor intensity, OR7D4 WM/WM subjects: N=10 WM/WM, compared with RT/WM; for intensity rating, RT/P79L subjects vs RT/RT controls: N=30 RT/P79L
Protocol: Human olfactory psychophysics. All human subjects gave informed consent to participate in this study and were tested in a well-ventilated room. Normal human subjects (n=412; 218 female, 194 male; median age 34, age range 19-75) were pre-screened to exclude pregnant women and those with medical conditions causing general impairment of the sense of smell. All subjects completed two replicates of the test separated by at least 4 days. Odors were presented in amber vials as previously described (see, e.g., Keller, A., et al., Nat Neurosci 7, 337-338 (2004); herein incorporated by reference in its entirety) using bar-coded symbols to ensure that subjects were blind to the identity of all odors. The intensity and valence of 66 odors at two concentrations (“high” and “low”) and two solvents was rated using a 7-point scale. Thresholds were calculated using the single staircase method with seven reversals (see, e.g., Doty, R. L., et al., Chem Senses 20, 645-656 (1995); Doty, R. L. & Laing, D. G. in Handbook of Olfaction and Gustation (ed. Doty, R. L.) pp. 203-228 (Marcel Dekker, Inc., New York, 2003); each of which are herein incorporated by reference in their entireties). Threshold tests included both steroids as binary dilutions from […] (binary dilution 6) to 1: 134,217,728 (binary dilution 27). Subjects who could not reliably distinguish a 1:64 dilution of androstenone and androstadienone from solvent were operationally defined as anosmic to these odorous steroids, although it could not be excluded that these subjects could detect higher concentrations of these steroids (see, e.g., Bremner, E. A., et al., Chem Senses 28, 423-432 (2003); herein incorporated by reference in its entirety). Odor profiling used the method established by Dravnieks, et al. (see, e.g., Dravnieks, A., et al., Science 218, 799-801 (1982); herein incorporated by reference in its entirety).
Stimuli for olfactory psychophysics. All odors were presented as one ml of an odor dilution in either propylene glycol or paraffin oil in 20 ml amber glass vials. All of these compounds were used in the intensity and valence rating portion of the smell test.
Olfactory ratings. The intensity and valence of 66 odors were rated at two different concentrations (high and low) and the intensity and valence of the two solvents (paraffin oil and propylene glycol) was rated three times. Prior to these ratings, six stimuli that represented the spectrum of intensity and valence of the stimuli used in the study were presented to allow the subjects to calibrate the usage of the scale. The subjects were unaware that the six first stimuli served that purpose. After the rating of the 66 odors at two concentrations and the rating of the solvents, 15 stimuli that were presented earlier in the experiment were repeated to test for the effect of adaptation and olfactory fatigue on the ratings. The subjects were not aware that the last 15 stimuli served this purpose. These 15 stimuli and the six first stimuli were not included in the analysis presented here. […] The 15 control stimuli and their concentrations were as follows:
In addition there was a button on the screen labeled “I can't smell anything” and a button labeled “Don't Know”. If the “Don't Know” button was pressed, no rating was recorded. If the “I can't smell anything” button was pressed, a 0 was recorded for the intensity rating and no rating was recorded for the valence rating. The other ratings were transformed according to the following scheme:
• Extremely Weak=1 • Very Weak=2 • Slightly Weak=3 • Neither Weak nor Strong=4 • Slightly Strong=5 • Very Strong=6 • Extremely Strong=7 Valence Rating • Extremely Unpleasant=1 • Very Unpleasant=2 • Slightly Unpleasant=3 • Neither Unpleasant nor Pleasant=4 • Slightly Pleasant=5 • Very Pleasant=6 • Extremely Pleasant=7
Averages for the ratings of the different genotypes were calculated. […]

cortisol levels = settings: Wyart et al. 2007; cited from earlier work
human subjects [2] = experiment: Human olfactory psychophysics: odor profiling with 146 descriptors; format: in vivo; settings: androstenone 1/10,000
Protocol: Human olfactory psychophysics. All human subjects gave informed consent to participate in this study and were tested in a well-ventilated room. Normal human subjects (n=412; 218 female, 194 male; median age 34, age range 19-75) were pre-screened to exclude pregnant women and those with medical conditions causing general impairment of the sense of smell. All subjects completed two replicates of the test separated by at least 4 days. Odors were presented in amber vials as previously described (see, e.g., Keller, A., et al., Nat Neurosci 7, 337-338 (2004); herein incorporated by reference in its entirety) using bar-coded symbols to ensure that subjects were blind to the identity of all odors. The intensity and valence of 66 odors at two concentrations (“high” and “low”) and two solvents was rated using a 7-point scale. Thresholds were calculated using the single staircase method with seven reversals (see, e.g., Doty, R. L., et al., Chem Senses 20, 645-656 (1995); Doty, R. L. & Laing, D. G. in Handbook of Olfaction and Gustation (ed. Doty, R. L.) pp. 203-228 (Marcel Dekker, Inc., New York, 2003); each of which are herein incorporated by reference in their entireties). Threshold tests included both steroids as binary dilutions from […] (binary dilution 6) to 1: 134,217,728 (binary dilution 27). […]
Assigning descriptors to odors. Subjects assessed the quality of six odors using an odor profiling method that has shown to produce stable profiles of odorants. […] Odor profiling typically took five minutes per odorant and was performed as a computer-controlled selftest in which the subject's responses were directly recorded. […] The descriptors used to describe the other four odors (vanillin, pentadecalactone, androstenone, and propylene glycol) were evaluated. […]

humans = settings: literature; cited from earlier work

In the case of `C[C@@]12C=CC[C@H]1[C@@H]1CCC3=CC(=O)CC[C@]3(C)[C@H]1CC2` [androstadienone, androsta-4,16-dien-3-one], the “intensity rating, OR7D4 RT/WM vs RT/RT subjects” value (human subjects [1]) is reported as “less intense”, the “intensity rating, RT/S84N subjects vs RT/RT controls” value (human subjects [1]) is reported as “more intense” and the “reduction in odor intensity, OR7D4 WM/WM subjects” value (human subjects [1]) is reported as “more marked”. The “intensity rating, RT/P79L subjects vs RT/RT controls” value (human subjects [1]) was “less intense” and the “cortisol levels in women smelling the odor vs women not smelling it” value (cortisol levels) was “maintained at higher levels”.
With `C[C@]12CCC(=O)C[C@@H]1CC[C@@H]1[C@@H]2CC[C@]2(C)C=CC[C@@H]12` [androstenone, 5α-androst-16-en-3-one] the “intensity rating, OR7D4 RT/WM vs RT/RT subjects” value (human subjects [1]) was “less intense”, the “intensity rating, RT/S84N subjects vs RT/RT controls” value (human subjects [1]) was “more intense” and the “reduction in odor intensity, OR7D4 WM/WM subjects” value (human subjects [1]) was “more marked”. For the same compound, the “intensity rating, RT/P79L subjects vs RT/RT controls” value (human subjects [1]) was “less intense”, the “use of descriptor "sickening", OR7D4 RT/WM vs RT/RT subjects” value (human subjects [2]) was “less likely” and the “use of descriptor "vanilla", OR7D4 RT/WM vs RT/RT subjects” value (human subjects [2]) was “more likely”. The “humans fitting the criteria of specific anosmia” value (humans) was 6% and the “humans with reduced sensitivity” value (humans) was “Up to 30%”.
